Measured values taken from publication doi:10.1101/2024.04.19.590329, “Quantifying and controlling the proteolytic degradation of cell adhesion peptides” (bioRxiv, 2024).
Each block holds one molecule with its values, some of them ahead of it. Non-standard residues stand in square brackets, D forms with d. Residues, ends and D or L forms follow the SMILES beside them. βAla = NCCC(=O)O

Legend:
[1] = test system: cells in gels, all cell types; test: Viability of cells in gels (alamarBlue); assay type: cell-based, human; details: cells in PEG gels, days 0, 3 and 7, across all cell types
Protocol: Cells were cultured in gels as described. A working solution was made by diluting the alamarBlue dye (Y00–100, Thermo Scientific) (1:10) with the same media cells were cultured in. The media the cells were in was replaced with one ml of working solution. One ml of working solution was also placed into 3 blank wells. The cells were then placed in the incubator 36°C, 5% CO2 for 3 hours. After 3 hours, 100 μL of the solution was sampled and placed into a 96 well plate, and fluorescence intensity was measured using a Tecan plate reader using 560Ex/590Em nm filter settings, reading from the bottom of the plate. Immediately after measurement, the alamar blue working solution was washed three times with appropriate media for each cell type being measured and placed back in the incubator. The same cells were used for each measurement during days 0, 3, and 7.

[2] = Degradation of individual glycine-terminated peptide at 19.5 to 5,000 μM (cell type not stated); assay type: in vitro ADME; details: individual peptide with glycine at the terminus, initial concentration 5,000 μM, LCMS, cell type not stated (Fig. 4A)
Protocol: The column temperature was a constant 29 °C. The Mass Spectrometer was operated in positive ion mode.
Data Analysis was performed on Xcalibur Software (Thermo Scientific). […] Calculated data was visualized using RStudio.

Protocol for hUVECs: Passage 2 of human umbilical vein endothelial cells (hUVECs) (Life Technology) were seeded into 24 well plates at a seeding density of 150,000 cells per well in 1ml of expansion media (Lifeline Cell Technology, LM-0002) containing ascorbic acid, hydrocortisone, FBS, L-Glutamine, rh-EGF, heparin, and EnGS-US (All supplements LifeFactors, LS-1122). After 24 hour the media was changed. Peptide libraries, each containing 19 peptides and the non-proteolytically degradable βFβAβAβAβAβA-NH2 internal standard, were added to the cell media for a final concentration of 37 μM per peptide. Each library was tested in triplicate per per cell type per study. 40 μl samples were collected from the media at hours 0, 1, 4, 8, 24, and 48. In-between timepoints samples were frozen −80°C. […]
Data Analysis was performed on Xcalibur Software (Thermo Scientific). Peptides were identified automatically using the Thermo Xcalibur Processing Setup window where the mass (m/z) ±0.5 AMU and expected retention times for each quantified peptide were inputted. This was later used to isolate individual peptide species from the total ion count (TIC) trace using the Thermo Xcalibur Quan Setup window, where the area under the curve was calculated and visually inspected for accuracy. […] Relative amounts of a peptide of peptide were then calculated by normalized all values to their corresponding time zero area ratio.

Molecule: cyclic GRGDSK(N3) (head to tail) [cRGD, Cyclic RGD peptide, positive control, has no terminus, tethered to PEG-DBCO hydrogel by azide]
viability within gels, in words [1]: greatest viability

peptide remaining after 48 hours [2]: 5%
Molecule: CC(C)[C@H](NC(=O)[C@H](Cc1ccccc1)NC(=O)[C@H](CCC(=O)O)NC(=O)CNC(=O)[C@H](CCCNC(=N)N)NC(=O)CN)C(=O)NCCC(N)=O [amine-terminated RGEFV peptides] (H-GRGEFV[βAla]-NH2)

degradation in words (hUVECs): rapidly degraded
Molecule: LIAANK
